# According to ChEMBL document CHEMBL1201862, “PubChem BioAssay data set” (2004):
# The source made the active and inactive calls.
# Assays:
# [1] = biological target: Mitogen-activated protein kinase 10 (Homo sapiens, UniProt P53779); experiment: Dose response biochemical screening assay for inhibitors of c-Jun N-Terminal Kinase 3 (JNK3). [Related pubchem assays: 746 ]
# [2] = biological target: CAAX prenyl protease 1 (Saccharomyces cerevisiae S288c, UniProt P47154); experiment: Ste24 protease inhibitors, dose response, biochemical, S. cerevisiae, plate reader, cherry-pick (AID 488815)
# [3] = biological target: T1, CAAX prenyl protease 2 (Saccharomyces cerevisiae S288c, UniProt Q03530); format: biochemical
# T1 sequence (Q03530 whole entry): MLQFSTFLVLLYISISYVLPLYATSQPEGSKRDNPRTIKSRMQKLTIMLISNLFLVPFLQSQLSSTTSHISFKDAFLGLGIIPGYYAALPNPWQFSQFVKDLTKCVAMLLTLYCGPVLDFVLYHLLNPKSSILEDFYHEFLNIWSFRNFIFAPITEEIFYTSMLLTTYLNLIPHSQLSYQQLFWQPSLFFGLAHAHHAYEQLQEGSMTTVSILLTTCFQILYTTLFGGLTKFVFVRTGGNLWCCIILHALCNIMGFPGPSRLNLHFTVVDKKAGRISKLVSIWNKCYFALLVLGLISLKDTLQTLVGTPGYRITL
# [4] = growth suppression of beta-catenin-knockout colon cells, dose response, cell-based, HCT116, human colon tumor (AID 1045); format: functional;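 note: HCT116 colon tumor cells with beta catenin knocked out; cells exposed to compound for 60 hours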
# [5] = insulin promoter down-regulators in MIN6 cells, imaging, high-content screening, mouse beta cells (AID 1628); format: functional
# [6] = inhibitors of SNCA 5'UTR-driven reporter translation, confirmation, H4 neuroglioma cells, luminescence (AID 1988); format: functional, cell-based
# [7] = cytotoxicity in MIN6 insulinoma cells, dose response, cytotoxicity control, cell-based, mouse insulinoma (AID 2122); format: functional;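 note: confirmatory high-throughput counterscreen run to flag cytotoxic compounds; mouse MIN-6 beta cells carrying an insulin promoter eGFP reporter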
# [8] = Luminescence Cell-Based Dose Response HTS to Identify Inhibitors of 5'UTR Stem-Loop Driven Prion Protein mRNA Translation in H4 Neuroglioblastoma Cells. [Related pubchem assays: 1827 (Project Summary), 1813 (Primary HTS)]; format: functional
# [9] = growth suppression of PTEN-null colon cells, dose response, cell-based, HCT116 PTEN knockout (AID 1047); format: functional;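 note: HCT116 colon tumor cells with PTEN knocked out; cells exposed to compound for 60 hours before readout; potency for loss of cell viability measured by luminescence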
# [10] = inhibitors of firefly luciferase expression or activity, dose response, H4 neuroglioma cells, luminescence (AID 1990); format: functional, cell-based
# Chain of CAAX prenyl protease 1 (P47154 whole entry): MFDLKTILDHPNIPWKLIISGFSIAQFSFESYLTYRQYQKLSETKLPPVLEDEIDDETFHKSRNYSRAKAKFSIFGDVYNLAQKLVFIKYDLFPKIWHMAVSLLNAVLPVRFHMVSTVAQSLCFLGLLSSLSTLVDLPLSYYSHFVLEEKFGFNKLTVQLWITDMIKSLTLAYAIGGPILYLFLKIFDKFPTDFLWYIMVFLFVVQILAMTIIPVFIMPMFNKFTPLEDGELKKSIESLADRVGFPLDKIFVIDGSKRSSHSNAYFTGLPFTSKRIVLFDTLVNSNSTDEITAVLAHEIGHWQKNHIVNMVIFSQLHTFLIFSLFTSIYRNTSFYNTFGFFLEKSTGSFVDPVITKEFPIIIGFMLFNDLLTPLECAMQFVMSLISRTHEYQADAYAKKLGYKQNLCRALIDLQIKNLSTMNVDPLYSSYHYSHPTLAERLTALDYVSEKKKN
# Chain of Mitogen-activated protein kinase 10 (P53779 whole entry): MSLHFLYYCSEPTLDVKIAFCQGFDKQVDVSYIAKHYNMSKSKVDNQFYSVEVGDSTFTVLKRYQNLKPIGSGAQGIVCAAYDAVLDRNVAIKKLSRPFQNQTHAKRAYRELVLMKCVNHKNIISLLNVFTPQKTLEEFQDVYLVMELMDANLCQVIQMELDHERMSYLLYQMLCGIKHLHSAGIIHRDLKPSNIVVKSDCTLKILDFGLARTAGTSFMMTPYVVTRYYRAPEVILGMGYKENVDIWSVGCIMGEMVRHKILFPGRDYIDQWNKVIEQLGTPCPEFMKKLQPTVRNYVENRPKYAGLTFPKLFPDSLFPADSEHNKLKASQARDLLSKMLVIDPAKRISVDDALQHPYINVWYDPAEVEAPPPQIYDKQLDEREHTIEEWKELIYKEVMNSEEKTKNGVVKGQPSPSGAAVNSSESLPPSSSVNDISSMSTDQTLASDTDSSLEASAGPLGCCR
SMILES,IC50 [1],AC50 [2],AC50 [3],EC50 [4],IC50 [5],EC50 [6],IC50 [7],EC50 [8],EC50 [9],EC50 [10]
COC(=O)c1ccccc1NC(=O)NCc1cccnc1,> 93.1 µM (not active),3.47 µM (active),26.1 µM (active),–,–,–,–,–,–,–
COc1ccc(N2CCN(Cc3nc(N)nc(Nc4ccc(C)c(Cl)c4)n3)CC2)cc1,–,–,–,24 µM (active),3.03 µM (active),13.7 µM (active),4.31 µM (active),26.8 µM (active),28.9 µM (active),9.58 µM (active)
